Reference: patent US10253027B2, “Aryl lactam kinase inhibitors” (Bristol-Myers Squibb Company, priority 2013, dated 2019)

The molecules below were run against T1, GST-Xa-hAAK1 (Homo sapiens, UniProt Q2M2I8) (assay: AAK1 Kinase Assay). Conditions: IC50 (nM), ATP 22 μM; 3 hours at room temperature; Caliper LabChip 3000.
T1 construct: made in house
Format: biochemical
Procedure: The assays were performed in U-bottom 384-well plates. […] The reactions were initiated by the combination of bacterially expressed, GST-Xa-hAAK1 with substrates and test compounds. The reactions were incubated at room temperature for 3 hours and terminated by adding 60 μl of 35 mM EDTA buffer to each sample. The reactions were analyzed on the Caliper LabChip 3000 (Caliper, Hopkinton, Mass.) by electrophoretic separation of the fluorescent substrate and phosphorylated product. […] Compounds were dissolved at 10 mM in dimethylsulfoxide (DMSO) and evaluated at eleven concentrations. IC50 values were derived by non-linear regression analysis.

T1 sequence (Q2M2I8 whole entry): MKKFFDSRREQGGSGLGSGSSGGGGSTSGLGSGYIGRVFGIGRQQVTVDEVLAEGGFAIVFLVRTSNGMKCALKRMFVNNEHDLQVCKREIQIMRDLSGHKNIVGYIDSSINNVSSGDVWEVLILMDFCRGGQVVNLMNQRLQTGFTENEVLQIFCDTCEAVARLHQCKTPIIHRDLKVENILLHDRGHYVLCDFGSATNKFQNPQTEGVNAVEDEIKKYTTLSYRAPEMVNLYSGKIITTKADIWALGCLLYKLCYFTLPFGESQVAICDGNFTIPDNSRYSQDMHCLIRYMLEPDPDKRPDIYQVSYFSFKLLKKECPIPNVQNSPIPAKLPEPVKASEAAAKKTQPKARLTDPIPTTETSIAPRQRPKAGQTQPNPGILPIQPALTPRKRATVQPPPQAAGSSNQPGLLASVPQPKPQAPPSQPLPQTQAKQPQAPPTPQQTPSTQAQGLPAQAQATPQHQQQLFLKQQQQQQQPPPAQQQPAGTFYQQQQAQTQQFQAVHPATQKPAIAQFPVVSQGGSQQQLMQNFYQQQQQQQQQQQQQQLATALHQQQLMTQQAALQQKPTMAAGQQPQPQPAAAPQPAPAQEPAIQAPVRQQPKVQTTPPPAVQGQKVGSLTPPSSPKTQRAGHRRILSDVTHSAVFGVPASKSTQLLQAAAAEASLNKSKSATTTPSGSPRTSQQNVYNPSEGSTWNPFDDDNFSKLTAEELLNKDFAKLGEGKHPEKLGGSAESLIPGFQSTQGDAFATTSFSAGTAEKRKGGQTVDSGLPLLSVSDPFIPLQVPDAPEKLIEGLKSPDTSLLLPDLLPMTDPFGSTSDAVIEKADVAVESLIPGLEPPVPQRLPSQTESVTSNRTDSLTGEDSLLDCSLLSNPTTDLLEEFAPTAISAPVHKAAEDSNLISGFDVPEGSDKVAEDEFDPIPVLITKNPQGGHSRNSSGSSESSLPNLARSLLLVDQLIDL

COc1cc(NC(=O)[C@H](N)CC(C)C)ccc1-c1cnco1 [Example 1, (R)-2-Amino-N-(3-methoxy-4-(oxazol-5-yl)phenyl)-4-methylpentanamide] and CC(C)C[C@@H](N)C(=O)Nc1ccc(-c2cnco2)c(OC(F)F)c1 [Example 18, (R)-2-Amino-N-(3-(difluoromethoxy)-4-(oxazol-5-yl)phenyl)-4-methylpentanamide] are within 1.5-fold of each other in IC50: 36 nM for the first, 35 nM for the second.

Going from COc1cc(NC(=O)[C@H](N)[C@H](C)O)ccc1-c1cnco1 [Example 77, (2R,3S)-2-Amino-3-hydroxy-N-(3-methoxy-4-(oxazol-5-yl)phenyl)butanamide] to COc1cc(NC(=O)C[C@@H](N)C(C)C)ccc1-c1cnco1 [Example 79, (R)-3-Amino-N-(3-methoxy-4-(oxazol-5-yl)phenyl)-4-methylpentanamide], the IC50 falls from 810 nM to 130 nM (6.2-fold).

COc1cc(NC(=O)[C@H]2C[C@H](OC)CN2)ccc1-c1cnco1 [Example 78, (2R,4S)-4-Methoxy-N-(3-methoxy-4-(oxazol-5-yl)phenyl)pyrrolidine-2-carboxamide] and COc1cc(NC(=O)[C@H]2C[C@H](F)CN2)ccc1-c1cnco1 [Example 89, (2R,4S)-4-Fluoro-N-(3-methoxy-4-(oxazol-5-yl)phenyl)pyrrolidine-2-carboxamide] are within 1.5-fold of each other in IC50: 2900 nM for the first, 2000 nM for the second.

Going from COc1cc(NC(=O)C2CCCCN2C(=O)C(C)C)ccc1-c1cnco1 (centres unmarked) [Example 80, 1-Isobutyryl-N-(3-methoxy-4-(oxazol-5-yl)phenyl)piperidine-2-carboxamide] to COc1cc(NC(=O)[C@@H]2CCCN2C(=O)C(C)C)ccc1-c1cnco1 [Example 82, (S)-1-Isobutyryl-N-(3-methoxy-4-(oxazol-5-yl)phenyl)pyrrolidine-2-carboxamide], the IC50 rises from 630 nM to 1800 nM (2.9-fold). The first is the more potent here.

COc1cc(NC(=O)[C@@H]2CCCN2C(C)C)ccc1-c1cnco1 [Example 81, (S)-1-Isopropyl-N-(3-methoxy-4-(oxazol-5-yl)phenyl)pyrrolidine-2-carboxamide] and COc1cc(NC(=O)C2CCCCN2C(C)C)ccc1-c1cnco1 (centres unmarked) [Example 83, 1-Isopropyl-N-(3-methoxy-4-(oxazol-5-yl)phenyl)piperidine-2-carboxamide] are within 1.5-fold of each other in IC50: 510 nM for the first, 360 nM for the second.

Going from COc1cc(NC(=O)C(N)CC(C)(C)F)ccc1-c1cnco1 (centres unmarked) [Example 84, 2-Amino-4-fluoro-N-(3-methoxy-4-(oxazol-5-yl)phenyl)-4-methylpentanamide] to CC(C)C[C@@H](N)C(=O)Nc1ccc(-c2cnco2)c(OC(F)(F)F)c1 [Example 106, (R)-2-Amino-4-methyl-N-(4-(oxazol-5-yl)-3-(trifluoromethoxy)phenyl)pentanamide], the IC50 falls from 240 nM to 160 nM (1.5-fold). The second is the more potent here.

COc1cc(NC(=O)C2NCCCC2C(C)C)ccc1-c1cnco1 (centres unmarked) [Example 85, 3-Isopropyl-N-(3-methoxy-4-(oxazol-5-yl)phenyl)piperidine-2-carboxamide] and COc1cc(NC(=O)[C@@H]2NCCC[C@@H]2C(C)C)ccc1-c1cnco1 [Example 88, (2R,3R)-3-Isopropyl-N-(3-methoxy-4-(oxazol-5-yl)phenyl)piperidine-2-carboxamide] are the same in IC50: 8 nM for the first, 8 nM for the second.

First: COc1cc(NC(=O)C2CNCCN2C(C)C)ccc1-c1cnco1 (centres unmarked) [Example 86, 1-Isopropyl-N-(3-methoxy-4-(oxazol-5-yl)phenyl)piperazine-2-carboxamide]
Second: COc1cc(NC(=O)[C@H]2C[C@@H](F)CN2)ccc1-c1cnco1 [Example 90, (2R,4R)-4-Fluoro-N-(3-methoxy-4-(oxazol-5-yl)phenyl)pyrrolidine-2-carboxamide]
The IC50 of the first is 21-fold lower: 52 nM for the first, 1100 nM for the second. The first is the more potent here.

COc1cc(NC(=O)[C@H](N)C(C)C)c(F)cc1-c1cnco1 [Example 96, (R)-2-Amino-N-(2-fluoro-5-methoxy-4-(oxazol-5-yl)phenyl)-3-methylbutanamide] and COc1cc(NC(=O)[C@H](N)CC(C)C)c(F)cc1-c1cnco1 [Example 98, (R)-2-Amino-N-(2-fluoro-5-methoxy-4-(oxazol-5-yl)phenyl)-4-methylpentanamide] are within 1.5-fold of each other in IC50: 780 nM for the first, 1120 nM for the second.

First: COc1cc(NC(=O)[C@@H](N)CC(C)C)c(F)cc1-c1cnco1 [Example 99, (S)-2-Amino-N-(2-fluoro-5-methoxy-4-(oxazol-5-yl)phenyl)-4-methylpentanamide]
Second: COc1cc(-c2cnco2)c(F)cc1NC(=O)[C@H](N)CC(C)C [Example 107, (R)-2-Amino-N-(5-fluoro-2-methoxy-4-(oxazol-5-yl)phenyl)-4-methylpentanamide]
The IC50 of the first is 9.3-fold higher: 780 nM for the first, 84 nM for the second.

First: COc1cc(NC(=O)[C@H](N)C2CCCC2)c(F)cc1-c1cnco1 [Example 100, (R)-2-Amino-2-cyclopentyl-N-(2-fluoro-5-methoxy-4-(oxazol-5-yl)phenyl)acetamide]
Second: COc1cc(NC(=O)[C@H](N)CC(C)C)c(C#N)cc1-c1cnco1 [Example 101, (R)-2-Amino-N-(2-cyano-5-methoxy-4-(oxazol-5-yl)phenyl)-4-methylpentanamide]
The IC50 of the first is 21-fold higher: 530 nM for the first, 25 nM for the second. The second is the more potent here.

Compared with COc1cc(NC(=O)[C@H](N)CC(C)C)c(-c2nn[nH]n2)cc1-c1cnco1 [Example 102, (R)-2-Amino-N-(5-methoxy-4-(oxazol-5-yl)-2-(2H-tetrazol-5-yl)phenyl)-4-methylpentanamide], COc1cc(NC(=O)[C@H](N)CC(C)C)c(-c2nncs2)cc1-c1cnco1 [Example 103] is 60-fold higher in IC50: 6 nM for the first, 360 nM for the second. The first is the more potent here.

COc1cc(NC(=O)[C@H](N)CC(C)C)c(-c2cnco2)cc1-c1cnco1 [Example 104, (R)-2-Amino-N-(5-methoxy-2,4-bis(oxazol-5-yl)phenyl)-4-methylpentanamide] and CC(C)C[C@@H](N)C(=O)Nc1cc(F)c(-c2cnco2)cc1F [Example 105, (R)-2-Amino-N-(2,5-difluoro-4-(oxazol-5-yl)phenyl)-4-methylpentanamide] are within 1.5-fold of each other in IC50: 760 nM for the first, 620 nM for the second.

First: CC(C)C[C@@H](N)C(=O)Nc1ccc(-c2cnco2)c(C#N)c1 [Example 108, (R)-2-Amino-N-(3-cyano-4-(oxazol-5-yl)phenyl)-4-methylpentanamide]
Second: COc1cc(NC(=O)[C@H](N)CC(C)C)ccc1-c1cnc[nH]1 [Example 109, (R)—N-(4-(1H-Imidazol-5-yl)-3-methoxyphenyl)-2-amino-4-methylpentanamide]
The IC50 of the first is 17-fold lower: 47 nM for the first, 790 nM for the second.

First: CC(C)C[C@@H](N)C(=O)Nc1ccc(-c2ccncc2)cc1C(F)(F)F [Example 111, (R)-2-Amino-4-methyl-N-(4-(pyridin-4-yl)-2-(trifluoromethyl)phenyl)pentanamide]
Second: CC(C)C[C@@H](N)C(=O)Nc1ccc(-c2ccncc2)cc1C#N [Example 114, (R)-2-Amino-N-(2-cyano-4-(pyridin-4-yl)phenyl)-4-methylpentanamide]
The IC50 of the first is 4-fold higher: 300 nM for the first, 75 nM for the second.

First: CC(C)C[C@@H](N)C(=O)Nc1ccc(-c2ccncc2)cc1-c1cn[nH]c1 [Example 112, (R)—N-(2-(1H-pyrazol-4-yl)-4-(pyridin-4-yl)phenyl)-2-amino-4-methylpentanamide]
Second: CC(C)C[C@@H](N)C(=O)Nc1ccc(-c2ccncc2)cc1-c1ccsc1 [Example 113, (R)-2-Amino-4-methyl-N-(4-(pyridin-4-yl)-2-(thiophen-3-yl)phenyl)pentanamide]
The IC50 of the first is 2.7-fold higher: 1340 nM for the first, 500 nM for the second.

CC(C)C[C@@H](N)C(=O)Nc1ccc(-c2ccncc2)cc1-c1nn[nH]n1 [Example 115, (R)-2-Amino-4-methyl-N-(4-(pyridin-4-yl)-2-(2H-tetrazol-5-yl)phenyl)pentanamide] and CC(C)C[C@@H](N)C(=O)Nc1ccc(-c2ccncc2)cc1 [Example 116, (R)-2-Amino-4-methyl-N-(4-(pyridin-4-yl)phenyl)pentanamide] are within 1.5-fold of each other in IC50: 28 nM for the first, 25 nM for the second.

First: COc1cc(NC(=O)[C@H](N)CC(C)C)ccc1-c1ccncn1 [Example 117, (R)-2-Amino-N-(3-methoxy-4-(pyrimidin-4-yl)phenyl)-4-methylpentanamide]
Second: CC(=O)Nc1cc(-c2ccc(NC(=O)[C@H](N)CC(C)C)cc2)ccn1 [Example 118, (R)—N-(4-(2-Acetamidopyridin-4-yl)phenyl)-2-amino-4-methylpentanamide]
The IC50 of the first is 77-fold higher: 460 nM for the first, 6 nM for the second. The second is the more potent here.

The molecules below were run on mice (assay: formalin paw test (paw flinching, pain response)). Conditions: 50 mg/kg sc; % response relative to gabapentin 200 mg/kg (=100%); compound given 30 minutes prior to formalin.
Format: in vivo, mouse
Procedure: AAK1 homozygous (−/−) and their wild-type (+/+) littermates were tested using the formalin paw test in order to assess their acute and tonic nociceptive responses. For these tests, Automatic Nociception Analyzers (purchased from the Ozaki lab at University of California, San Diego) were used. A metal band was placed around the left hind paw of each mouse 30 minutes prior to testing. After the 30-minute acclimation period, 20 μl of 5% formalin is subcutaneously injected in the dorsal surface of the left hind paw. Mice were individually housed in cylindrical chambers for 45 minutes. Fresh 5% formalin solution was prepared by diluting formaldehyde (Formalde-fresh 20%, Fisher Scientific, Fair Lawn, N.J.) with distilled water. Investigatory compounds were administered 30 minutes prior to formalin injection.
A computer recorded flinches per minute, total flinches for phase I (acute phase=first 8 minutes), and total flinches for phase II (tonic phase=time between minutes 20-40) through an electromagnetic field. See Yaksh T L, Ozaki G, McCumber D, Rathbun M, Svensson C, Malkmus S, Yaksh M C. An automated flinch detecting system for use in the formalin nociceptive bioassay. J Appl Physiol., 2001; 90:2386-402. Phase 1 and phase 2 data were obtained using homozygous (−/−) mice females (n=16), wild-type females (n=15), homozygous (−/−) mice males (n=9), and wild-type males (n=18).
The same test was used to confirm that the administration of an AAK1 inhibitor can also affect pain response.
A compound of the disclosure was tested in this assay at different doses. Gabapentin and pregabalin were used as positive controls. Results are shown below in Table 3, wherein the effect of gabapentin at 200 mg/kg is considered a 100% response, the % response for the other compounds is relative to the 200 mg/kg dose of gabapentin, “sc” means subcutaneous administration; “po” means oral administration.

First: NCC1(CC(=O)O)CCCCC1 [Gabapentin]
Second: CC(C)C[C@H](CN)CC(=O)O [Pregabalin, pregabalin]
The Response of the first is lower: 60% for the first, 90% for the second.

Same assay, conditions: 60 mg/kg sc; % response relative to gabapentin 200 mg/kg (=100%); compound given 30 minutes prior to formalin

First: COc1cc(NC(=O)[C@H](N)CC(C)C)ccc1-c1cnco1 [Example 1, (R)-2-Amino-N-(3-methoxy-4-(oxazol-5-yl)phenyl)-4-methylpentanamide]
Second: CC(C)C[C@@H](N)C(=O)Nc1ccc(-c2cnco2)c(OC(F)F)c1 [Example 18, (R)-2-Amino-N-(3-(difluoromethoxy)-4-(oxazol-5-yl)phenyl)-4-methylpentanamide]
The Response of the first is lower: 90% for the first, 100% for the second.

Same assay, conditions: 200 mg/kg sc; gabapentin at 200 mg/kg is considered a 100% response

In the case of NCC1(CC(=O)O)CCCCC1 [Gabapentin], the Response is reported as 100%.
